# Results: US4452782A, “Pentadecapeptide” (Hoffmann-La Roche Inc., priority 1979, dated 1984)
# Legend:
# Lewis lung carcinoma [1] = experiment: Survival of mice with Lewis lung carcinoma in combination with cyclophosphamide and surgery (Table 8); format: in vivo; details: cyclophosphamide 50 mg/kg i.p. × 1 alone
# Method: (§1) Lewis lung carcinoma (1×10^6) was implanted into footpad and at day 10 the advanced tumor was excised by amputation of the leg with the tumor developed. Then the mice were treated with cyclophosphamide (50 mg/kg, i.p.) 24 hrs later and at day 27 the dry weight of the tumor metastasized to lung was measured.
# On the other hand, the effect of the peptide on survival of the mice, which were amputated the advanced tumor and treated with cyclophosphamide, was examined. The experimental conditions were identical to the above experiment except that the advanced tumor was excised at day 12 and the mice were treated with cyclophosphamide at day 13.
# Lewis lung carcinoma [2] = experiment: Suppression of growth of Lewis lung carcinoma metastasized to lung after amputation and cyclophosphamide (Table 7); format: in vivo, mice; details: cyclophosphamide 50 mg/kg i.p. × 1 alone after amputation; day 27
# Method: The major problem in the treatment of cancer patient after surgical elimination of tumor is the prevention of metastasis of the tumor.
# as §1
# C. albicans = experiment: Protective activity against lethal infection in mice immunosuppressed with 5-fluorouracil; format: in vivo; details: 5-fluorouracil 25 mg/kg/day × 10 i.p. alone; 1 × 10^5 i.v.
# Method: (§2) The effect was further extended against microbial infections in mice immunosuppressed by treatment of a cytostatic. Mice pretreated daily for 10 times with 5-fluorouracil (25 mg/kg/day, i.p.) were infected by either Ps. aeruginosa or C. albicans and the survivals were recorded on day 15.
# (§3) C. albicans and Ps. aeruginosa were infected intravenously with 1 ×
# Ps. aeruginosa = experiment: as above; format: in vivo; details: 5-fluorouracil 25 mg/kg/day × 10 i.p. alone; 4 × 10^4 i.v.
# Method: as §2, §3
Compound,Survivals at day 100 (Lewis lung carcinoma [1]),Mean survival days (Lewis lung carcinoma [1]; days after tumor implantation),dry weight of the tumor metastasized (mg ± S.D.) (Lewis lung carcinoma [2]),Suppressive activity against lethal infection (survivals at day 15) (C. albicans),Suppressive activity against lethal infection (survivals at day 15) (Ps. aeruginosa)
O=P1(N(CCCl)CCCl)NCCCO1 (centres unmarked) [Cyclophosphamide],2/12,32.6 ± 3.2 days,45.9 ± 30.6 mg,,
O=c1[nH]cc(F)c(=O)[nH]1 [5-fluorouracil],,,,5/35,2/7
